Starred links: 1 amine or outer side, 2 acyl side, 3 side chain; linkers in the order of their positions; H or OH if unused. Positions of bridges follow the written chain, without caps; N, C: chain ends. Residues, ends and D or L forms follow the SMILES beside them. mXylylene = c1cc(C[*:1])cc(C[*:2])c1

Data on 1 compound can be found in article PMC10418426, “A Comprehensive Technology Platform for the Rapid Discovery of Peptide Inhibitors against SARS-CoV-2 Pseudovirus Infection” (International Journal of Molecular Sciences, 2023).

The test system of this series is HEK293-ACE2 cells. The following applies: 1 to 100 μM, 24 h treatment plus 24 h in fresh medium, absorbance 560 nm.

Consider `C[C@@H](O)[C@@H]1NC(=O)[C@@H]2CCCN2C(=O)[C@H](CCC(N)=O)NC(=O)[C@@H](N)CSCc2cccc(c2)CSC[C@@H](C(N)=O)NC(=O)[C@H](CCC(N)=O)NC(=O)[C@H](Cc2c[nH]c3ccccc23)NC(=O)CNC(=O)[C@H](CCCCN)NC(=O)CNC(=O)[C@H](CC(N)=O)NC1=O` [c9_05] (H-CQPTNGKGWQC-NH2; linker 1-11 via mXylylene), for which the “effect on cell viability (MTT)” value was “did not cause any significant decrease in cell viability”.
